# Molecular target: T1, human β3 adrenergic receptor (Homo sapiens, UniProt P13945)
# T1 construct: expressed in transfected cells; host or cells: Chinese hamster ovary (CHO) cells, stably transfected
# Test: Beta-3 agonist in vitro functional assay: cAMP production (LANCE TR-FRET) in CHO cells stably transfected with the cloned β3 receptor
# Assay type: cell-based
# Conditions: Table 10; Beta-3 agonist in vitro functional assay; read-out: Human β3 agonist functional activity
# Method in brief: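 CHO cells stably expressing the cloned receptor, in HEPES-buffered HBSS with BSA and 0.6 mM IBMX, 6,000 cells/well, exposed to compound for 30 min at RT. cAMP read by LANCE TR-FRET against a cAMP standard curve. Isoproterenol defines maximal stimulation.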
# T1 sequence (P13945 whole entry): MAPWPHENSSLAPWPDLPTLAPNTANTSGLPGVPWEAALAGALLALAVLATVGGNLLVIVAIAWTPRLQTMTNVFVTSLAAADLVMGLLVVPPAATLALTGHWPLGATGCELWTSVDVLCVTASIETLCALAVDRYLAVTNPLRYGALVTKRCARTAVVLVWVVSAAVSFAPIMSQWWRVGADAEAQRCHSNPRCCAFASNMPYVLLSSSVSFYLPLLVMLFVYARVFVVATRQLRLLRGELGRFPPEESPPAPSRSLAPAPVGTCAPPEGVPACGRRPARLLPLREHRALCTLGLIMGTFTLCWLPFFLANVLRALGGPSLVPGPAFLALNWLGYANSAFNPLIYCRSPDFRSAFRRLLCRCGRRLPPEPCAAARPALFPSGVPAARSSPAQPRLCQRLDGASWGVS
row,Structure (SMILES),EC50
1,CC(C(=O)N1CCC1)N1CCN(C(=O)c2ccc(C[C@@H]3CC[C@H]([C@H](O)c4ccccc4)N3)cc2)CC1 (stereo partly drawn) [Example 471],1 to 9.9 nM
2,CC(C(=O)N1CC(F)C1)N1CCN(C(=O)c2ccc(C[C@@H]3CC[C@H]([C@H](O)c4ccccc4)N3)cc2)CC1 (stereo partly drawn) [Example 472],1 to 9.9 nM
3,COC1CN(C(=O)C(C)N2CCN(C(=O)c3ccc(C[C@@H]4CC[C@H]([C@H](O)c5ccccc5)N4)cc3)CC2)C1 (stereo partly drawn) [Example 473],10 to 99.9 nM
4,CC(C(=O)N1CC(O)(c2ccccc2)C1)N1CCN(C(=O)c2ccc(C[C@@H]3CC[C@H]([C@H](O)c4ccccc4)N3)cc2)CC1 (stereo partly drawn) [Example 474],1 to 9.9 nM
5,CC(C(=O)N1CC[C@H](F)C1)N1CCN(C(=O)c2ccc(C[C@@H]3CC[C@H]([C@H](O)c4ccccc4)N3)cc2)CC1 (stereo partly drawn) [Example 475],1 to 9.9 nM
6,CC(C(=O)N1C[C@H](F)[C@@H](F)C1)N1CCN(C(=O)c2ccc(C[C@@H]3CC[C@H]([C@H](O)c4ccccc4)N3)cc2)CC1 (stereo partly drawn) [Example 476],10 to 99.9 nM
7,CC(C(=O)N1CCC(O)C1)N1CCN(C(=O)c2ccc(C[C@@H]3CC[C@H]([C@H](O)c4ccccc4)N3)cc2)CC1 (stereo partly drawn) [Example 477],100 to 999 nM
8,CC(C(=O)N1CCC[C@H]1C(N)=O)N1CCN(C(=O)c2ccc(C[C@@H]3CC[C@H]([C@H](O)c4ccccc4)N3)cc2)CC1 (stereo partly drawn) [Example 478],100 to 999 nM
9,CC(C(=O)N1C(C)CCC1C)N1CCN(C(=O)c2ccc(C[C@@H]3CC[C@H]([C@H](O)c4ccccc4)N3)cc2)CC1 (stereo partly drawn) [Example 479],10 to 99.9 nM
10,CC(C(=O)N1CCC[C@@H]1C)N1CCN(C(=O)c2ccc(C[C@@H]3CC[C@H]([C@H](O)c4ccccc4)N3)cc2)CC1 (stereo partly drawn) [Example 480],10 to 99.9 nM
11,CC(C(=O)N1CCSC1)N1CCN(C(=O)c2ccc(C[C@@H]3CC[C@H]([C@H](O)c4ccccc4)N3)cc2)CC1 (stereo partly drawn) [Example 481],100 to 999 nM
12,CC(C(=O)N1Cc2cccnc2C1)N1CCN(C(=O)c2ccc(C[C@@H]3CC[C@H]([C@H](O)c4ccccc4)N3)cc2)CC1 (stereo partly drawn) [Example 482],10 to 99.9 nM
13,CC(C(=O)N1Cc2cncnc2C1)N1CCN(C(=O)c2ccc(C[C@@H]3CC[C@H]([C@H](O)c4ccccc4)N3)cc2)CC1 (stereo partly drawn) [Example 483],100 to 999 nM
14,CC(C(=O)N1CCCCC1)N1CCN(C(=O)c2ccc(C[C@@H]3CC[C@H]([C@H](O)c4ccccc4)N3)cc2)CC1 (stereo partly drawn) [Example 484],10 to 99.9 nM
15,CC(C(=O)N1CCCCC1C)N1CCN(C(=O)c2ccc(C[C@@H]3CC[C@H]([C@H](O)c4ccccc4)N3)cc2)CC1 (stereo partly drawn) [Example 485],10 to 99.9 nM
16,CC1CCCN(C(=O)C(C)N2CCN(C(=O)c3ccc(C[C@@H]4CC[C@H]([C@H](O)c5ccccc5)N4)cc3)CC2)C1 (stereo partly drawn) [Example 486],10 to 99.9 nM
17,CC(C(=O)N1CCCC(C(F)(F)F)C1)N1CCN(C(=O)c2ccc(C[C@@H]3CC[C@H]([C@H](O)c4ccccc4)N3)cc2)CC1 (stereo partly drawn) [Example 487],1 to 9.9 nM
18,CC1CCN(C(=O)C(C)N2CCN(C(=O)c3ccc(C[C@@H]4CC[C@H]([C@H](O)c5ccccc5)N4)cc3)CC2)CC1 (stereo partly drawn) [Example 488],100 to 999 nM
19,CC(C(=O)N1CCC(O)CC1)N1CCN(C(=O)c2ccc(C[C@@H]3CC[C@H]([C@H](O)c4ccccc4)N3)cc2)CC1 (stereo partly drawn) [Example 489],10 to 99.9 nM
20,CC(C(=O)N1CCC(CO)CC1)N1CCN(C(=O)c2ccc(C[C@@H]3CC[C@H]([C@H](O)c4ccccc4)N3)cc2)CC1 (stereo partly drawn) [Example 490],10 to 99.9 nM
21,CC(C(=O)N1CCC(F)CC1)N1CCN(C(=O)c2ccc(C[C@@H]3CC[C@H]([C@H](O)c4ccccc4)N3)cc2)CC1 (stereo partly drawn) [Example 491],10 to 99.9 nM
22,CC(C(=O)N1CC=CCC1)N1CCN(C(=O)c2ccc(C[C@@H]3CC[C@H]([C@H](O)c4ccccc4)N3)cc2)CC1 (stereo partly drawn) [Example 492],10 to 99.9 nM
23,CC(C(=O)N1CCCCC12CC2)N1CCN(C(=O)c2ccc(C[C@@H]3CC[C@H]([C@H](O)c4ccccc4)N3)cc2)CC1 (stereo partly drawn) [Example 493],10 to 99.9 nM
24,CC(C(=O)N1CCC(C2CC2)CC1)N1CCN(C(=O)c2ccc(C[C@@H]3CC[C@H]([C@H](O)c4ccccc4)N3)cc2)CC1 (stereo partly drawn) [Example 494],10 to 99.9 nM
25,CC(C(=O)N1CCCC2(CCO2)C1)N1CCN(C(=O)c2ccc(C[C@@H]3CC[C@H]([C@H](O)c4ccccc4)N3)cc2)CC1 (stereo partly drawn) [Example 495],10 to 99.9 nM
26,CC(C(=O)N1CCCC2(CCC2)C1)N1CCN(C(=O)c2ccc(C[C@@H]3CC[C@H]([C@H](O)c4ccccc4)N3)cc2)CC1 (stereo partly drawn) [Example 496],10 to 99.9 nM
27,CC(C(=O)N1CCCC2(CCCO2)C1)N1CCN(C(=O)c2ccc(C[C@@H]3CC[C@H]([C@H](O)c4ccccc4)N3)cc2)CC1 (stereo partly drawn) [Example 497],10 to 99.9 nM

row,Structure (SMILES),EC50
1,CC(C(=O)N1CCCC2(CCCCO2)C1)N1CCN(C(=O)c2ccc(C[C@@H]3CC[C@H]([C@H](O)c4ccccc4)N3)cc2)CC1 (stereo partly drawn) [Example 498],10 to 99.9 nM
2,CC(C(=O)N1CCOCC1)N1CCN(C(=O)c2ccc(C[C@@H]3CC[C@H]([C@H](O)c4ccccc4)N3)cc2)CC1 (stereo partly drawn) [Example 499],100 to 999 nM
3,CC(C(=O)N1C[C@@H]2C[C@H]1CO2)N1CCN(C(=O)c2ccc(C[C@@H]3CC[C@H]([C@H](O)c4ccccc4)N3)cc2)CC1 (stereo partly drawn) [Example 500],10 to 99.9 nM
4,CC(C(=O)N1[C@H]2CC[C@@H]1CC2)N1CCN(C(=O)c2ccc(C[C@@H]3CC[C@H]([C@H](O)c4ccccc4)N3)cc2)CC1 (stereo partly drawn) [Example 501],100 to 999 nM
5,CC(C(=O)N1CCn2ccnc2C1)N1CCN(C(=O)c2ccc(C[C@@H]3CC[C@H]([C@H](O)c4ccccc4)N3)cc2)CC1 (stereo partly drawn) [Example 502],10 to 99.9 nM
6,CC(C(=O)N1CCc2oncc2C1)N1CCN(C(=O)c2ccc(C[C@@H]3CC[C@H]([C@H](O)c4ccccc4)N3)cc2)CC1 (stereo partly drawn) [Example 503],10 to 99.9 nM
7,Cc1nc2c(o1)CN(C(=O)C(C)N1CCN(C(=O)c3ccc(C[C@@H]4CC[C@H]([C@H](O)c5ccccc5)N4)cc3)CC1)CC2 (stereo partly drawn) [Example 504],1 to 9.9 nM
8,CC(C(=O)N1CCc2nc(C3CC3)sc2C1)N1CCN(C(=O)c2ccc(C[C@@H]3CC[C@H]([C@H](O)c4ccccc4)N3)cc2)CC1 (stereo partly drawn) [Example 505],< 1 nM
9,CC(C(=O)N1CCc2ccncc2C1)N1CCN(C(=O)c2ccc(C[C@@H]3CC[C@H]([C@H](O)c4ccccc4)N3)cc2)CC1 (stereo partly drawn) [Example 506],10 to 99.9 nM
10,CC(C(=O)N1CCc2ncccc2C1)N1CCN(C(=O)c2ccc(C[C@@H]3CC[C@H]([C@H](O)c4ccccc4)N3)cc2)CC1 (stereo partly drawn) [Example 507],10 to 99.9 nM
11,CC(C(=O)N1CCc2cnccc2C1)N1CCN(C(=O)c2ccc(C[C@@H]3CC[C@H]([C@H](O)c4ccccc4)N3)cc2)CC1 (stereo partly drawn) [Example 508],10 to 99.9 nM
12,CC(C(=O)N1CCc2ccc(F)cc2C1)N1CCN(C(=O)c2ccc(C[C@@H]3CC[C@H]([C@H](O)c4ccccc4)N3)cc2)CC1 (stereo partly drawn) [Example 509],1 to 9.9 nM
13,CC(C(=O)N1CCc2ccc(Cl)cc2C1)N1CCN(C(=O)c2ccc(C[C@@H]3CC[C@H]([C@H](O)c4ccccc4)N3)cc2)CC1 (stereo partly drawn) [Example 510],1 to 9.9 nM
14,CC(C(=O)N1CCCCCC1)N1CCN(C(=O)c2ccc(C[C@@H]3CC[C@H]([C@H](O)c4ccccc4)N3)cc2)CC1 (stereo partly drawn) [Example 511],100 to 999 nM
15,Cc1nonc1CN(C)C(=O)C(C)N1CCN(C(=O)c2ccc(C[C@@H]3CC[C@H]([C@H](O)c4ccccc4)N3)cc2)CC1 (stereo partly drawn) [Example 512],10 to 99.9 nM
16,CC(C(=O)N(C)C)N1CCN(C(=O)c2ccc(C[C@@H]3CC[C@H]([C@H](O)c4ccccc4)N3)cc2)CC1 (stereo partly drawn) [Example 513],1 to 9.9 nM
17,CCCCN(C)C(=O)C(C)N1CCN(C(=O)c2ccc(C[C@@H]3CC[C@H]([C@H](O)c4ccccc4)N3)cc2)CC1 (stereo partly drawn) [Example 514],10 to 99.9 nM
18,CCN(C(=O)C(C)N1CCN(C(=O)c2ccc(C[C@@H]3CC[C@H]([C@H](O)c4ccccc4)N3)cc2)CC1)C(C)C (stereo partly drawn) [Example 515],10 to 99.9 nM
19,CCN(CC)C(=O)C(C)N1CCN(C(=O)c2ccc(C[C@@H]3CC[C@H]([C@H](O)c4ccccc4)N3)cc2)CC1 (stereo partly drawn) [Example 516],100 to 999 nM
20,CC(C(=O)N(C)C(C)(C)C)N1CCN(C(=O)c2ccc(C[C@@H]3CC[C@H]([C@H](O)c4ccccc4)N3)cc2)CC1 (stereo partly drawn) [Example 517],100 to 999 nM
21,CC(C)CN(C)C(=O)C(C)N1CCN(C(=O)c2ccc(C[C@@H]3CC[C@H]([C@H](O)c4ccccc4)N3)cc2)CC1 (stereo partly drawn) [Example 518],100 to 999 nM
22,CC(C(=O)N(C)CCO)N1CCN(C(=O)c2ccc(C[C@@H]3CC[C@H]([C@H](O)c4ccccc4)N3)cc2)CC1 (stereo partly drawn) [Example 519],100 to 999 nM
23,CCN(CCO)C(=O)C(C)N1CCN(C(=O)c2ccc(C[C@@H]3CC[C@H]([C@H](O)c4ccccc4)N3)cc2)CC1 (stereo partly drawn) [Example 520],10 to 99.9 nM
24,CC(C(=O)N(C)CCC#N)N1CCN(C(=O)c2ccc(C[C@@H]3CC[C@H]([C@H](O)c4ccccc4)N3)cc2)CC1 (stereo partly drawn) [Example 521],10 to 99.9 nM
25,CC(C(=O)N(C1CC1)C1CC1)N1CCN(C(=O)c2ccc(C[C@@H]3CC[C@H]([C@H](O)c4ccccc4)N3)cc2)CC1 (stereo partly drawn) [Example 522],10 to 99.9 nM
26,CC(C(=O)N(C)C(C1CC1)C1CC1)N1CCN(C(=O)c2ccc(C[C@@H]3CC[C@H]([C@H](O)c4ccccc4)N3)cc2)CC1 (stereo partly drawn) [Example 523],10 to 99.9 nM

# Same assay, conditions: Table 11; cAMP, CHO cells; read-out: Human β3 agonist functional activity
row,Structure (SMILES),EC50
1,C[C@@H]1CN(C(=O)c2ccc(C[C@@H]3CC[C@H]([C@H](O)c4ccccc4)N3)cc2)CCN1Cc1ccccn1 [Example 527],10 to 99.9 nM

# Same assay, conditions: given as a range; cAMP, CHO cells; read-out: human β3 functional activity
row,Structure (SMILES),EC50
1,"O=C(c1ccc(C[C@@H]2CC[C@H]([C@H](O)c3ccccc3)N2)cc1)N1C2CCC1C1CCC2N1Cc1ccccn1 [Example 524, (R)-phenyl[(2R,5S)-5-(4-{[10-(pyridin-2-ylmethyl)-9,10-diazatricyclo[4.2.1.1^2,5]dec-9-yl]carbonyl}benzyl)pyrrolidin-2-yl]methanol]",10 to 99.9 nM

# Same assay, conditions: human β3 functional activity
row,Structure (SMILES),EC50
1,C[C@H](c1ccccn1)N1C2CCC1C1CCC2N1C(=O)c1ccc(C[C@@H]2CC[C@H]([C@H](O)c3ccccc3)N2)cc1 [Example 525],10 to 99.9 nM
2,C[C@@H](c1ccccn1)N1C2CCC1C1CCC2N1C(=O)c1ccc(C[C@@H]2CC[C@H]([C@H](O)c3ccccc3)N2)cc1 [Example 526],10 to 99.9 nM

# From patent US8354403B2, “Pyrrolidine derived beta 3 adrenergic receptor agonists” (Merck Sharp & Dohme Corp., priority 2009, dated 2013)
